Our source for the Ki values is patent US9487501B2, “Pyrazole carboxamide compounds and uses thereof” (Hoffmann-La Roche Inc., priority 2012, dated 2016).

Counter-ions that a name gives are not always drawn.

The target in one experiment is rat TAAR1 (Rattus norvegicus (Rat), UniProt Q923Y9). Nature of the experiment: Radioligand binding assay on rat TAAR1.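 Further: stably transfected HEK293 cell membranes with a tritiated radioligand, 1 h incubation at 4 °C, nonspecific binding taken as binding with 10 µM unlabeled ligand.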 To be noted: read-out: Ki (μM) rat; rat TAAR1, membranes of HEK-293 cells, radioligand displacement.
The target of a further experiment is mouse TAAR1 (Mus musculus (Mouse), UniProt Q923Y8). Description: Radioligand binding assay on mouse TAAR1. To be noted: read-out: Ki (μM) mouse; mouse TAAR1, membranes of HEK-293 cells, radioligand displacement.
mouse TAAR1, sequence (Q923Y8 whole entry): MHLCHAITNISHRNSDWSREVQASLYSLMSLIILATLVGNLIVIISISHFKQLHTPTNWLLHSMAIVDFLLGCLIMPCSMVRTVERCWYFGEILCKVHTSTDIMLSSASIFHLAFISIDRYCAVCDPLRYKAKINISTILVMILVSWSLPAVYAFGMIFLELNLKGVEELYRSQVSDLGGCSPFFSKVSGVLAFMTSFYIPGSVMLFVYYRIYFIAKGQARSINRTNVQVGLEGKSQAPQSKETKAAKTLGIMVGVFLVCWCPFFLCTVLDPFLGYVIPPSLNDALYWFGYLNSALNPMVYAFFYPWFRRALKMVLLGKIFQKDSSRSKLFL

rat TAAR1, sequence (Q923Y9 whole entry): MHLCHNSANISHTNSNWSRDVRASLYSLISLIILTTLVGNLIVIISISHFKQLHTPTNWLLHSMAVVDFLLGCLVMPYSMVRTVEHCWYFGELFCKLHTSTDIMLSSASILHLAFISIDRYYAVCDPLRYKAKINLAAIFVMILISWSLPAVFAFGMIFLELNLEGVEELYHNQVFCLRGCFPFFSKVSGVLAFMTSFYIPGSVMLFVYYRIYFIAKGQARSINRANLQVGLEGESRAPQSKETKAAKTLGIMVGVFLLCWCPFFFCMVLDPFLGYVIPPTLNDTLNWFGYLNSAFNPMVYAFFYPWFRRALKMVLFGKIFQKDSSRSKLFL
Method for mouse TAAR1: (§1) For the generation of stably transfected cell lines HEK293 cells were transfected with the pIRESneo2 expression plasmids containing the TAAR coding sequences (described above) with Lipofectamine 2000 (Invitrogen) according to the instructions of the manufacturer, and 24 hrs post transfection the culture medium was supplemented with 1 mg/ml G418 (Sigma, Buchs, Switzerland). […] Radioligand Binding Assay on Rat TAAR1 Membrane Preparation and Radioligand Binding. […] Cells were released from culture flasks using trypsin/EDTA, harvested, washed twice with ice-cold PBS (without Ca^2+ and Mg^2+), pelleted at 1,000 rpm for 5 min at 4° C., frozen and stored at −80° C. Frozen pellets were suspended in 20 ml HEPES-NaOH (20 mM, pH 7.4) containing 10 mM EDTA and homogenized with a Polytron (PT 6000, Kinematica) at 14,000 rpm for 20 s. The homogenate was centrifuged at 48,000×g for 30 min at 4° C. Subsequently, the supernatant was removed and discarded, and the pellet resuspended in 20 ml HEPES-NaOH (20 mM, pH 7.4) containing 0.1 mM EDTA using the Polytron (20 s at 14,000 rpm). This procedure was repeated and the final pellet resuspended in HEPES-NaOH containing 0.1 mM EDTA and homogenized using the Polytron. Typically, aliquots of 2 ml membrane portions were stored at −80° C. With each new membrane batch the dissociation constant (Kd) was determined via a saturation curve. […] Nonspecific binding was defined as the amount of ^3[H]-(S)-4-[(ethyl-phenyl-amino)-methyl]-4,5-dihydro-oxazol-2-ylamine bound in the presence of 10 μM unlabeled ligand. All compounds were tested at a broad range of concentrations (10 pM to 10 μM) in duplicates. […] The 96 deep well plates were incubated for 1 hr at 4° C. Incubations were terminated by rapid filtration through Unifilter-96 plates (Packard Instrument Company) and glass filters GF/C (Perkin Elmer) presoaked for 1 hr in polyethylenimine (0.3%) and washed 3 times with 1 ml of cold binding buffer. After addition of 45 μl of Microscint 40 (PerkinElmer) the Unifilter-96 plate was sealed and after 1 hr the radioactivity counted using a TopCount Microplate Scintillation Counter (Packard Instrument Company). Radioligand Binding Assay on Mouse TAAR1 Membrane Preparation and Radioligand Binding. […] Cells were released from culture flasks using trypsin/EDTA, harvested, washed twice with ice-cold PBS (without Ca^2+ and Mg^2+), pelleted at 1,000 rpm for 5 min at 4° C., frozen and stored at −80° C. Frozen pellets were suspended in 20 ml HEPES-NaOH (20 mM, pH 7.4) containing 10 mM EDTA and homogenized with a Polytron (PT 6000, Kinematica) at 14,000 rpm for 20 s. The homogenate was centrifuged at 48,000×g for 30 min at 4° C. Subsequently, the supernatant was removed and discarded, and the pellet resuspended in 20 ml HEPES-NaOH (20 mM, pH 7.4) containing 0.1 mM EDTA using the Polytron (20 s at 14,000 rpm). This procedure was repeated and the final pellet resuspended in HEPES-NaOH containing 0.1 mM EDTA and homogenized using the Polytron. Typically, aliquots of 2 ml membrane portions were stored at −80° C. With each new membrane batch the dissociation constant (Kd) was determined via a saturation curve.
Method for rat TAAR1: as §1

As to `Cc1c(C(=O)Nc2ccc([C@H]3CNCCO3)cc2)cnn1-c1ccccc1` [Example 1, (S)-5-methyl-N-(4-(morpholin-2-yl)phenyl)-1-phenyl-1H-pyrazole-4-carboxamide hydrochloride], the Ki on rat TAAR1 is 0.229 µM; on mouse TAAR1, 0.0086 µM.

Take `Cc1ccnc(-n2cc(C(=O)Nc3ccc([C@H]4CNCCO4)cc3)cn2)n1` [Example 43, (S)-1-(4-methylpyrimidin-2-yl)-N-(4-(morpholin-2-yl)phenyl)-1H-pyrazole-4-carboxamide hydrochloride]: the Ki on rat TAAR1 was determined as 0.315 µM; at mouse TAAR1, 0.0554 µM.

Take `O=C(Nc1ccc([C@H]2CNCCO2)cc1)c1cnn(-c2nccc(C(F)(F)F)n2)c1` [Example 48, (S)—N-(4-(morpholin-2-yl)phenyl)-1-(4-(trifluoromethyl)pyrimidin-2-yl)-1H-pyrazole-4-carboxamide hydrochloride]: the Ki on rat TAAR1 worked out at 0.149 µM; on mouse TAAR1 it was 0.0531 µM.

Take `N#Cc1cccc(-n2cc(C(=O)Nc3ccc([C@H]4CNCCO4)cc3)cn2)c1` [Example 13, (S)-1-(3-cyanophenyl)-N-(4-(morpholin-2-yl)phenyl)-1H-pyrazole-4-carboxamide hydrochloride]: the figures for the Ki on rat TAAR1 and on mouse TAAR1 were 0.0072 µM and 0.0023 µM, respectively.

With `O=C(Nc1ccc([C@H]2CNCCO2)cc1)c1cnn(-c2cncc(C(F)(F)F)n2)c1` [Example 38, (S)—N-(4-(morpholin-2-yl)phenyl)-1-(6-(trifluoromethyl)pyrazin-2-yl)-1H-pyrazole-4-carboxamide hydrochloride], the inhibitory constant (Ki) worked out at 0.0059 µM at rat TAAR1 and 0.0075 µM on mouse TAAR1.
